Reference: patent US20060020029A1, “Pharmaceutical compositions from ethnobotanicals” (priority 2004, published 2006)
Values after ≈ are worked out from the molar mass of the structure shown.

How the values were obtained:
[1] = Stability in increasing concentrations of water (HPLC); assay type: physicochemical; conditions: for Area % of 3,5-DCQA (HPLC): Table 24 (in H2O)
Protocol: The rate of degradation of 3,5-DCQA was again tested in increasing concentrations of water. 5.4 mg 3,5-DCQA was dissolved in 0.266ml DMSO (conc.=20.3 mg/ml), and then diluted with water to ½, ¼ and ⅛ dilution, respectively. All samples were subjected on HPLC in 0 Day, 1 Day, 2 Day and 4 Day, and Area % of 3,5-DCQA was calculated.

[2] = system: RSV B; assay: CPE assay, RSV-B in Hep-2 cells; assay type: cell-based, respiratory syncytial virus
[3] = system: RSV-Long (Cotton Rat adapted strain); assay: CPE assay, RSV-Long cotton rat adapted strain; assay type: cell-based, respiratory syncytial virus

O=C(/C=C/c1ccc(O)c(O)c1)OC1CC(O)(C(=O)O)CC(OC(=O)/C=C/c2ccc(O)c(O)c2)C1O (stereo not shown) [CJ4-16-4, 3,5-di-O-caffeoylquinic acid]
Area % of 3,5-DCQA (HPLC) ([1]; Stock (20.3 mg/ml), 0 Day): 97.05 Area % | Area % of 3,5-DCQA (HPLC) ([1]; Stock (20.3 mg/ml), 1 Day): 96.09 Area % | Area % of 3,5-DCQA (HPLC) ([1]; Stock (20.3 mg/ml), 2 Day): 93.94 Area % | Area % of 3,5-DCQA (HPLC) ([1]; Stock (20.3 mg/ml), 4 Day): 91.90 Area % | Area % of 3,5-DCQA (HPLC) ([1]; ¼ dilution with water, 1 Day): 92.79 Area % | Area % of 3,5-DCQA (HPLC) ([1]; ¼ dilution with water, 2 Day): 91.06 Area % | Area % of 3,5-DCQA (HPLC) ([1]; ¼ dilution with water, 4 Day): 88.14 Area % | Area % of 3,5-DCQA (HPLC) ([1]; ½ dilution with water, 1 Day): 94.62 Area % | Area % of 3,5-DCQA (HPLC) ([1]; ½ dilution with water, 2 Day): 92.71 Area % | Area % of 3,5-DCQA (HPLC) ([1]; ½ dilution with water, 4 Day): 90.20 Area % | Area % of 3,5-DCQA (HPLC) ([1]; ⅛ dilution with water, 0 Day): 96.91 Area % | Area % of 3,5-DCQA (HPLC) ([1]; ⅛ dilution with water, 1 Day): 92.60 Area % | Area % of 3,5-DCQA (HPLC) ([1]; ⅛ dilution with water, 2 Day): 89.02 Area % | Area % of 3,5-DCQA (HPLC) ([1]; ⅛ dilution with water, 4 Day): 85.55 Area % | 3,5-DCQA changed into 4,5-DCQA ([1]; fourth day in solution): over 11% | EC50, RSV-B (Washington) ([2]; Hep-2 cells, CPE assay): 0.086 µg/mL (≈ 0.167 µM) | EC50 ([2]; μM using the estimated FW-516, read-out: EC50, RSV-B (Washington)): 0.167 µM | EC50, RSV-Long (Cotton Rat adapted strain) ([3]; Hep-2 cells, CPE assay): 1.4 µg/mL (≈ 2.71 µM) | EC50 ([3]; μM using the estimated FW-516): 2.7 µM
